Data taken from patent EP0821955B1 (priority 1996, dated 1998).

Columns and labels:
m4 receptors = m4 receptors (Homo sapiens, UniProt P08173); format: cell-based; settings: Chinese Hamster Ovary (CHO) m4 cells treated with pertussis toxin
[1] = biological target: muscarinic cholinergic receptors; test: ^3H-oxotremorine-M binding study; settings: inhibition of the binding of ^3H-oxotremorine-M; read-out: inhibition constant (Ki)

m4 receptors, sequence (P08173 whole entry): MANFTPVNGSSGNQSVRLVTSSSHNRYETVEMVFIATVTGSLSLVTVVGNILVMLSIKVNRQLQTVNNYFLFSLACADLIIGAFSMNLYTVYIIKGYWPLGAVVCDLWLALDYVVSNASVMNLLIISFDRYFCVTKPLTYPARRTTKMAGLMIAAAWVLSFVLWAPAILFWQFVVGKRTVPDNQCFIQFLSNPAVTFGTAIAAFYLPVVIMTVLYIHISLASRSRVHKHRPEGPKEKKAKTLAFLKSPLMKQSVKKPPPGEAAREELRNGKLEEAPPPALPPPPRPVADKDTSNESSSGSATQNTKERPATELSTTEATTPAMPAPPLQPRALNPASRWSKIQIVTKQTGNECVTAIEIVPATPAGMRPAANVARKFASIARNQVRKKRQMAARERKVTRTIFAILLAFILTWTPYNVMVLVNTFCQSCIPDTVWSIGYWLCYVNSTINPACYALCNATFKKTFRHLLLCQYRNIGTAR

Q: Which “formation of cAMP” value (m4 receptors) does the source give for `CCCCCCOc1nsnc1C1=CCCN(C)C1` [xanomeline, 3-(4-hexyloxy-1,2,5-thiadiazol-3-yl)-1,2,5,6-tetrahydro-1-methylpyridine] here?
A: efficaciously and potently stimulated the formation of cAMP

Q: What about the Ki [1] of the same molecule?
A: 2 nM
